# Activity calls are given as the source filed them. How the calls were made is not given here.
# Molecular target: Drosophila melanogaster bursicon receptor LGR2 (rickets)
# Assay: inhibition of bursicon-stimulated LGR2 cAMP signaling – cell-based, HEK293, CRE-luciferase, beta-gal normalized, dry powder, set 2, dose response (AID 743508)
# Conditions: HEK293 LGR2 CRE-luciferase cAMP reporter, antagonist
row,Compound,IC50
1,Cc1ccc(S(=O)(=O)Nc2ccc3c(c2)C(=O)N([C@H](C)CO)C[C@@H](C)[C@H](CN(C)S(=O)(=O)c2cccs2)OCCCC[C@@H](C)O3)cc1,> 35 µM (inactive)
2,C[C@@H]1CN([C@@H](C)CO)C(=O)c2cc(NS(C)(=O)=O)ccc2O[C@@H](C)CCCCO[C@@H]1CN(C)Cc1ccc(C(F)(F)F)cc1,> 35 µM (inactive)
3,COc1ccc(NC(=O)Nc2ccc3c(c2)C(=O)N([C@H](C)CO)C[C@H](C)[C@H](CN(C)CC2CCCCC2)OCCCC[C@H](C)O3)cc1,> 35 µM (inactive)
4,C[C@@H]1CN([C@@H](C)CO)C(=O)c2cc(NC(=O)c3ccncc3)ccc2O[C@@H](C)CCCCO[C@H]1CN(C)C(=O)Nc1cccc2ccccc12,> 35 µM (inactive)
5,CC(C)NC(=O)Nc1ccc2c(c1)C(=O)N([C@H](C)CO)C[C@@H](C)[C@H](CN(C)S(C)(=O)=O)OCCCC[C@H](C)O2,> 35 µM (inactive)
6,Cc1noc(C)c1S(=O)(=O)Nc1ccc2c(c1)C(=O)N([C@H](C)CO)C[C@H](C)[C@H](CN(C)C(=O)Nc1ccc(F)cc1)OCCCC[C@@H](C)O2,> 35 µM (inactive)
7,COc1ccc(S(=O)(=O)Nc2ccc3c(c2)C(=O)N([C@H](C)CO)C[C@H](C)[C@H](CN(C)S(=O)(=O)c2ccc(F)cc2)OCCCC[C@@H](C)O3)cc1,> 35 µM (inactive)
8,COc1ccc(S(=O)(=O)Nc2ccc3c(c2)C(=O)N([C@@H](C)CO)C[C@H](C)[C@@H](CN(C)C(=O)Nc2cccc4ccccc24)OCCCC[C@H](C)O3)cc1,> 35 µM (inactive)
9,C[C@H](CO)N1C[C@H](C)[C@H](CN(C)C(=O)Nc2cccc3ccccc23)OCCCC[C@H](C)Oc2ccc(NC(=O)NC3CCCCC3)cc2C1=O,< 35 µM
10,COc1ccc(S(=O)(=O)Nc2ccc3c(c2)C(=O)N([C@@H](C)CO)C[C@@H](C)[C@H](CN(C)C(=O)Nc2cccc4ccccc24)OCCCC[C@H](C)O3)cc1,> 35 µM (inactive)
11,C[C@H]1CCCCO[C@H](CN(C)C(=O)Nc2cccc3ccccc23)[C@@H](C)CN([C@@H](C)CO)C(=O)c2cc(NS(=O)(=O)c3cn(C)cn3)ccc2O1,> 35 µM (inactive)
12,C[C@H](CO)N1C[C@H](C)[C@H](CN(C)C(=O)Nc2ccc(C(F)(F)F)cc2)OCCCC[C@H](C)Oc2ccc(NC(=O)NC3CCCCC3)cc2C1=O,< 35 µM
13,C[C@H](CO)N1C[C@H](C)[C@H](CN(C)C(=O)Cc2ccccc2)OCCCC[C@H](C)Oc2ccc(NC(=O)Nc3ccc(C(F)(F)F)cc3)cc2C1=O,> 35 µM (inactive)
14,C[C@H](CO)N1C[C@H](C)[C@H](CN(C)C(=O)Nc2ccccc2)OCCCC[C@H](C)Oc2ccc(NC(=O)CCC(F)(F)F)cc2C1=O,< 35 µM
15,C[C@H](CO)N1C[C@H](C)[C@H](CN(C)C(=O)Nc2ccccc2)OCCCC[C@H](C)Oc2ccc(NC(=O)Nc3ccccc3)cc2C1=O,< 35 µM
16,COc1ccc(NC(=O)N(C)C[C@@H]2OCCCC[C@H](C)Oc3ccc(NC(=O)NC4CCCCC4)cc3C(=O)N([C@H](C)CO)C[C@@H]2C)cc1,< 35 µM

# Further lines, results first:
row,IC50,Compound
1,< 35 µM,C[C@H]1CCCCO[C@@H](CN(C)S(=O)(=O)c2ccc(Cl)cc2)[C@@H](C)CN([C@@H](C)CO)C(=O)c2cc(NC(=O)NC3CCCCC3)ccc2O1
2,< 35 µM,COc1ccc(S(=O)(=O)N(C)C[C@@H]2OCCCC[C@H](C)Oc3ccc(NS(=O)(=O)c4ccc(F)cc4)cc3C(=O)N([C@@H](C)CO)C[C@@H]2C)cc1
3,< 35 µM,C[C@H](CO)N1C[C@H](C)[C@H](CN(C)C(=O)Nc2ccccc2)OCCCC[C@H](C)Oc2ccc(NC(=O)NC3CCCCC3)cc2C1=O
4,< 35 µM,C[C@H](CO)N1C[C@H](C)[C@H](CN(C)C(=O)Nc2ccc(C(F)(F)F)cc2)OCCCC[C@H](C)Oc2ccc(NC(=O)CCC(F)(F)F)cc2C1=O
5,< 35 µM,C[C@H]1CCCCO[C@@H](CN(C)C(=O)Nc2ccc3c(c2)OCO3)[C@@H](C)CN([C@@H](C)CO)C(=O)c2cc(NC(=O)NC3CCCCC3)ccc2O1
6,< 35 µM,COc1ccc(NC(=O)N(C)C[C@@H]2OCCCC[C@H](C)Oc3ccc(NC(=O)C4CCCCC4)cc3C(=O)N([C@H](C)CO)C[C@@H]2C)cc1
7,< 35 µM,C[C@H](CO)N1C[C@H](C)[C@H](CN(C)C(=O)Nc2ccccc2)OCCCC[C@H](C)Oc2ccc(NC(=O)C3CCCCC3)cc2C1=O
8,< 35 µM,C[C@H](CO)N1C[C@H](C)[C@H](CN(C)C(=O)Nc2ccc(F)cc2)OCCCC[C@H](C)Oc2ccc(NC(=O)C3CCCCC3)cc2C1=O
9,< 35 µM,C[C@H](CO)N1C[C@H](C)[C@H](CN(C)C(=O)Nc2ccccc2)OCCCC[C@H](C)Oc2ccc(NC(=O)Nc3ccc4c(c3)OCO4)cc2C1=O
10,< 35 µM,C[C@H]1CCCCO[C@@H](CN(C)C(=O)Nc2ccc(F)cc2)[C@@H](C)CN([C@@H](C)CO)C(=O)c2cc(NC(=O)C3CCCCC3)ccc2O1
11,< 35 µM,C[C@H](CO)N1C[C@H](C)[C@H](CN(C)C(=O)Nc2cccc3ccccc23)OCCCC[C@H](C)Oc2ccc(NC(=O)c3ccccc3)cc2C1=O
12,< 35 µM,C[C@H](CO)N1C[C@H](C)[C@H](CN(C)C(=O)Nc2ccc(F)cc2)OCCCC[C@H](C)Oc2ccc(NC(=O)Nc3ccccc3)cc2C1=O
13,< 35 µM,C[C@@H]1CCCCO[C@H](CN(C)CC2CCCCC2)[C@H](C)CN([C@H](C)CO)C(=O)c2cc(NS(=O)(=O)c3ccccc3)ccc2O1
14,< 35 µM,C[C@H](CO)N1C[C@H](C)[C@H](CN(C)C(=O)Nc2ccc(F)cc2)OCCCC[C@H](C)Oc2ccc(NC(=O)Nc3ccc(F)cc3)cc2C1=O
15,< 35 µM,C[C@H](CO)N1C[C@H](C)[C@H](CN(C)C(=O)Nc2ccc3c(c2)OCO3)OCCCC[C@H](C)Oc2ccc(NC(=O)C3CCCCC3)cc2C1=O
16,< 35 µM,C[C@H](CO)N1C[C@H](C)[C@H](CN(C)C(=O)Nc2ccc3c(c2)OCO3)OCCCC[C@H](C)Oc2ccc(NC(=O)NC3CCCCC3)cc2C1=O
17,< 35 µM,C[C@H]1CCCCO[C@@H](CN(C)C(=O)Nc2ccccc2)[C@@H](C)CN([C@@H](C)CO)C(=O)c2cc(NC(=O)NC3CCCCC3)ccc2O1
18,< 35 µM,C[C@H](CO)N1C[C@H](C)[C@H](CN(C)C(=O)Nc2ccc(F)cc2)OCCCC[C@H](C)Oc2ccc(NC(=O)NC3CCCCC3)cc2C1=O
19,< 35 µM,C[C@H](CO)N1C[C@H](C)[C@H](CN(C)C(=O)Nc2cccc3ccccc23)OCCCC[C@H](C)Oc2ccc(NC(=O)C3CCCCC3)cc2C1=O
20,< 35 µM,COc1ccc(S(=O)(=O)N(C)C[C@@H]2OCCCC[C@H](C)Oc3ccc(NS(=O)(=O)c4ccc(Cl)cc4)cc3C(=O)N([C@@H](C)CO)C[C@@H]2C)cc1
21,< 35 µM,C[C@H](CO)N1C[C@H](C)[C@H](CN(C)C(=O)Nc2cccc3ccccc23)OCCCC[C@H](C)Oc2ccc(NC(=O)CCC(F)(F)F)cc2C1=O
22,< 35 µM,C[C@H]1CCCCO[C@@H](CN(C)C(=O)Nc2ccc(C(F)(F)F)cc2)[C@@H](C)CN([C@@H](C)CO)C(=O)c2cc(NC(=O)CCC(F)(F)F)ccc2O1
